What was measured:
[1] = Nephelometry solubility in HBSS buffer containing 1% DMSO; assay type: physicochemical; conditions: for concentration up to which no signs of precipitation or aggregation are shown: in triplo
Method: Nephelometry was performed using NEPHELOstar Plus equipment (BMG LABTECH, Ortenberg, Germany). Kaolin was used as the internal standard, and compounds were added to HBSS buffer as DMSO stock solution to a final concentration of 1% DMSO and a total volume of 200 μL. Precipitation or aggregation was considered significant when average values exceeded three times the standard deviation of the blanks. Blank values were omitted if they exceeded three times the standard deviation of the 24 blanks that were measured on each 96-well plate. All compounds were tested in triplo, and wells of suspected outliers were visually inspected before omitting any outliers. Data were processed in Prism version 8.0 (GraphPad, San Diego, CA, USA).

[2] = Incubation experiment: fragment integrity by LCMS in HBSS buffer/1% DMSO; assay type: physicochemical; conditions: 10^−4 M in HBSS buffer/1% DMSO
Method: (§1) LCMS studies: A 10 mM solution in DMSO was diluted with HBSS buffer to 0.10 mM. Fragment integrity was measured by LCMS at regular intervals (not shown) up to 20 d in the dark at rt, or after 20 d of freezing. NMR studies: A 10 mM solution in DMSO-d6 was prepared. Fragment integrity was measured with ^1H NMR analysis at regular intervals (not shown) up to 20 d in the dark at rt, or after 20 d of freezing.

[3] = Incubation experiment: fragment integrity by 1H NMR in DMSO-d6; assay type: physicochemical; conditions: 10^−2 M in DMSO-d6, NMR, three weeks at room temperature or frozen
Method: as §1

[4] = cited from earlier work
[5] = design: method as in doi:10.1021/acssuschemeng.6b02115; conditions: cited from earlier work

Cc1ccc(COC2CC[C@H]3CO[C@@H]2O3)cc1 (some centres unmarked) [Compound 5c]
concentration up to which no signs of precipitation or aggregation are shown [1]: 1000 µM

Clc1cccc(Cl)c1CNC1CC[C@H]2CO[C@@H]1O2 (some centres unmarked) [Compound 8h]
byproduct formed ([2]; three weeks at room temperature): ca. 2.5% | decomposition in DMSO [3]: no significant decomposition

C1COC2(CCC3COC2O3)O1 (centres unmarked) [glycol acetal of Cyrene]
miscibility with water [4]: water-miscible

O=C1CC2COC(C1)O2 (centres unmarked) [iso-Cyrene]
concentration of solutions obtained in water ([4]; water): 10000 µM

O=C1CC[C@H]2CO[C@@H]1O2 [Cyrene, dihydrolevoglucosenone]
water solubility [4]: highly water-soluble | toxicity [5]: low toxicity

O=C(Nc1ccc(Cl)cc1)OC1CC[C@H]2CO[C@@H]1O2 (some centres unmarked) [Compound 7c]
concentration at which the precipitate/aggregate starts to form [1]: 10^−3 M | concentration up to which no signs of precipitation or aggregation are shown [1]: 320 µM

O=C(NC1CC[C@H]2CO[C@@H]1O2)c1cccs1 (some centres unmarked) [Compound 9p]
concentration up to which no signs of precipitation or aggregation are shown [1]: 1000 µM

COc1ccc(C(=O)NC2CC[C@H]3CO[C@@H]2O3)cc1 (some centres unmarked) [Compound 9h]
reactivity on incubation in buffer ([2]; three weeks at room temperature or frozen): no or only minor reactivity | decomposition in DMSO [3]: no significant decomposition

O=S(=O)(NC1CC[C@H]2CO[C@@H]1O2)C1CC1 (some centres unmarked) [Compound 12f]
concentration up to which no signs of precipitation or aggregation are shown [1]: 320 µM

Cn1ccc(CNC2CC[C@H]3CO[C@@H]2O3)n1.O=C(O)CCC(=O)O (some centres unmarked) [Compound 8f]
concentration up to which no signs of precipitation or aggregation are shown [1]: 3200 µM

From paper PMC9967789, “Green Drug Discovery: Novel Fragment Space from the Biomass-Derived Molecule Dihydrolevoglucosenone (Cyrene^TM)” (Molecules, 2023)
